From ChEMBL document CHEMBL1137427, “Efforts toward oral bioavailability in factor VIIa inhibitors” (Bioorg Med Chem Lett, 2006)

Columns and labels:
[1] = Mean residence time in iv dosed rat; type: ADME, organism-based; details: in vivo
[2] = biological target: Coagulation factor VII/tissue factor (Homo sapiens) (UniProt P08709+P13726); details: Plasma
Description: Anticoagulant potency in human plasma as measured by prothrombin time

Coagulation factor VII = biological target: T1, Coagulation factor VII (Homo sapiens, UniProt P08709)
T1 sequence (P08709 whole entry): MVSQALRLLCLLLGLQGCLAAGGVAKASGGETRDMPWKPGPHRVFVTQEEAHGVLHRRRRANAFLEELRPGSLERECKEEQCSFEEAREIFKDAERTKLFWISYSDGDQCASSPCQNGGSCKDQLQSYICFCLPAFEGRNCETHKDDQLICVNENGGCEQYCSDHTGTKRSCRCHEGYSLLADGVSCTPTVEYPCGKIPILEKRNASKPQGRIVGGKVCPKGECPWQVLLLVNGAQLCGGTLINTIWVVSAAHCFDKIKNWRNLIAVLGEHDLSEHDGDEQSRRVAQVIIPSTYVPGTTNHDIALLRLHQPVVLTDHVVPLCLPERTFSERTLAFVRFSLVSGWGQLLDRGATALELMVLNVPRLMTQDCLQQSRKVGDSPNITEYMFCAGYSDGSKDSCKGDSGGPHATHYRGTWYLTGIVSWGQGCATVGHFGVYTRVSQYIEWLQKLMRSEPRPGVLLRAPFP

[3] = Terminal half life in jugular vein catheter of Sprague-Dawley rat at 10 mg/kg, po; type: ADME, organism-based; design: dose 10 mg/kg, route oral; details: in vivo
[4] = Cmax in portal vein catheter of Sprague-Dawley rat at 10 mg/kg, po; type: ADME, organism-based; design: dose 10 mg/kg, route oral; details: in vivo
[5] = Cmax in jugular vein catheter of Sprague-Dawley rat at 10 mg/kg, po; type: ADME, organism-based; design: dose 10 mg/kg, route oral; details: in vivo
[6] = AUC in jugular vein catheter of Sprague-Dawley rat at 10 mg/kg, po; type: ADME, organism-based; design: dose 10 mg/kg, route oral; details: plasma
[7] = AUC in portal vein catheter of Sprague-Dawley rat at 10 mg/kg, po; type: ADME, organism-based; design: dose 10 mg/kg, route oral; details: plasma
[8] = Tmax in jugular vein catheter of Sprague-Dawley rat at 10 mg/kg, po; type: ADME, organism-based; design: dose 10 mg/kg, route oral; details: in vivo
[9] = Terminal half life in portal vein catheter of Sprague-Dawley rat at 10 mg/kg, po; type: ADME, organism-based; design: dose 10 mg/kg, route oral; details: in vivo
[10] = Tmax in portal vein catheter of Sprague-Dawley rat at 10 mg/kg, po; type: ADME, organism-based; design: dose 10 mg/kg, route oral; details: in vivo
[11] = Mean residence time in iv dosed Sprague-Dawley rat; type: ADME, organism-based; details: in vivo
[12] = Oral absorption in Sprague-Dawley rat at 10 mg/kg, po (AUC po, pv/AUC iv, jv); type: ADME, organism-based; design: dose 10 mg/kg, route oral; details: in vivo
[13] = Oral bioavailability in Sprague-Dawley rat at 10 mg/kg, po (AUC po, jv/AUC iv, jv); type: ADME, organism-based; details: in vivo

SMILES	MRT [1] [min]	2PT [2] [µM]	Ki (Coagulation factor VII) [nM]	also measured
N=C(N)c1ccc2[nH]c(-c3cc(C(CC(=O)O)C(=O)O)cc(-c4cc(CNC(N)=O)ccc4O)c3O)nc2c1 (centres undefined)	> 60	1.9	1	
N=C(N)c1ccc2[nH]c(-c3cc(CC(=O)O)cc(-c4cc(CNC(N)=O)ccc4O)c3O)nc2c1	< 20		14	
CCCCCC(=O)NCc1ccc(O)c(-c2cccc(-c3cc4cc(C(=N)N)ccc4[nH]3)c2O)c1		1.4	13	half-life [3]: 37 min; Cmax [4]: 14 nM; Cmax [5]: 12 nM; AUC [6]: 0.0122 µM·h; AUC [7]: 0.0147 µM·h; Tmax [8]: 30 min; half-life [9]: 26 min; Tmax [10]: 40 min; MRT [11]: 89 min
N=C(N)c1ccc2[nH]c(-c3cccc(-c4cc(CNC(=O)N5CCOCC5)ccc4O)c3O)cc2c1		2	17	
Cc1cc(-c2nc3cc(C(=N)N)ccc3[nH]2)c(O)c(-c2cc(CNC(N)=O)ccc2O)c1	< 20	2	4	
N=C(N)c1ccc2[nH]c(-c3cccc(-c4cc(CNC(N)=O)ccc4O)c3O)nc2c1	20	2.3	14	
N=C(N)c1ccc2[nH]c(-c3cc(F)cc(-c4cc(CNC(N)=O)ccc4O)c3O)nc2c1	< 20	2.5	5	
CC(=O)NCc1ccc(O)c(-c2cccc(-c3cc4cc(C(=N)N)ccc4[nH]3)c2O)c1			120	
CN(C)CCCC(=O)NCc1ccc(O)c(-c2cccc(-c3cc4cc(C(=N)N)ccc4[nH]3)c2O)c1		0.9	16	MRT [11]: 50 min
N=C(N)c1ccc2[nH]c(-c3cccc(-c4cc(CNC(=O)CO)ccc4O)c3O)cc2c1		0.9	3	MRT [11]: 117 min
CCCCCC(=O)NCc1ccc(O)c(-c2cccc(-c3cc4cc(C(=N)NO)ccc4[nH]3)c2O)c1				half-life [3]: 54 min; Cmax [4]: 1310 nM; Cmax [5]: 1730 nM; AUC [6]: 2.4 µM·h; AUC [7]: 2.03 µM·h; Fa [12]: 9%; Tmax [8]: 30 min; half-life [9]: 49 min; Tmax [10]: 31 min; bioavailability [13]: 11%
